For eleven compounds, ED50 and IC50 results are on record in ChEMBL document CHEMBL1123890, “Combined analgesic/neuroleptic activity in N-butyrophenone prodine-like compounds” (J Med Chem, 1987).

The species named for assay [1] is Rattus norvegicus. The assay can be described thus: The dose required to reduce the number of apomorphine induced rotation by 50% in rats with monolateral lesion of nigrostriatal tracts. In kind it is functional. Particulars: Nigrostriatal tract.
In assay [2] the test system is Mus musculus. The assay can be described thus: In vivo analgesic activity in mice after subcutaneous administration by hot plate assay method. In kind it is functional. Particulars: sc.
Assay [3] deals with Opioid receptor (Rattus norvegicus, UniProt P33533+P34975+P33535). The assay can be described thus: Ability to inhibit the specific binding of [3H]- dihydromorphine to opiate receptors in rat brain membrane preparation by 50%. The class given is cell membranes.
Assay [4] concerns the target D(2) dopamine receptor (Rattus norvegicus, UniProt P61169). As to the kind of experiment: Ability to inhibit the specific binding of [3H]- spiroperidol to Dopamine receptor D2 in rat striatal membrane preparation by 50%. In kind it is cell membranes, Striatum.
Assay [5] has as its target D(1A) dopamine receptor (Rattus norvegicus, UniProt P18901). The assay can be described thus: Inhibitory concentration against rat striatal dopamine (D1) sensitive adenylate cyclase activity. In kind it is functional.
For assay [6], the system named is Mus musculus. The assay can be described thus: In vivo analgesic activity in mice after subcutaneous administration by hot plate assay method. In kind it is functional. Particulars: sc. (Hot-plate and tail-flick tests time the reaction to a heat stimulus.)
In assay [7] the test system is Mus musculus. As to the kind of experiment: In vivo analgesic activity in mice after subcutaneous administration by hot plate assay method; inactive at 25 mg. In kind it is functional, organism-based.

Calls of active or inactive are those of the source. The calls are words filed in the database; no cut-off is given here.

Chain of D(1A) dopamine receptor (P18901 whole entry): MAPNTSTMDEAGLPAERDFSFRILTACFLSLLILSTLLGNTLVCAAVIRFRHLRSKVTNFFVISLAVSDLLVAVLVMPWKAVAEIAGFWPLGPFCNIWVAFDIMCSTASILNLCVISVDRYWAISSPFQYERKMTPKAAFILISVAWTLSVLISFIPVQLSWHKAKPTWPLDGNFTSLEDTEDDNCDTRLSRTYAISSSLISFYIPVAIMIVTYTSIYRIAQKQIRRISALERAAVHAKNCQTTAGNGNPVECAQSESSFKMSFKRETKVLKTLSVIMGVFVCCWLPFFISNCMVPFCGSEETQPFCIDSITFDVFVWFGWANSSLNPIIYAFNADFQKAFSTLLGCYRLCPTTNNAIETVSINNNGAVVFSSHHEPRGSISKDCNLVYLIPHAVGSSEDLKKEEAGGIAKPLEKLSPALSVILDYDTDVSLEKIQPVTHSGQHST
Chain of D(2) dopamine receptor (P61169 whole entry): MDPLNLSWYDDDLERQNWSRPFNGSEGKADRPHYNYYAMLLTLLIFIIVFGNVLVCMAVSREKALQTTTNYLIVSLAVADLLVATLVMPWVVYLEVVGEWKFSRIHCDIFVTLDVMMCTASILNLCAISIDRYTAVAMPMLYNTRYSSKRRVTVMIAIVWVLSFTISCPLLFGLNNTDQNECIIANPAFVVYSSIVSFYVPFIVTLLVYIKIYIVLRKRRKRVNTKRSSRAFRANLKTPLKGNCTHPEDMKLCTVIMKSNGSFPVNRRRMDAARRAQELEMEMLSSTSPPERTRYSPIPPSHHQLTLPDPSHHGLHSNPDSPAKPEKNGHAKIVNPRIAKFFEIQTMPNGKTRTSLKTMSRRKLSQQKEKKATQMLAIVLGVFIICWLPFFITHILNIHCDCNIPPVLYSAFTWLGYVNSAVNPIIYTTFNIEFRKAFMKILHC

`CCC(=O)OC1(c2ccccc2)CCN(CCCC(=O)c2ccc(F)cc2)C[C@H]1C` (some centres not stated): the ED50 (usually the dose that gives a 50% effect, or the effect in half of the subjects) in assay [1] was 1.59 mg/kg; in assay [2], 0.65 mg/kg. Further, the results for the IC50 in assay [3], in assay [4] and in assay [5] were 8.67 nM, 46.9 nM and 3200 nM, respectively.

In the case of `CCC(=O)OC1CCN(CCCC(=O)c2ccc(F)cc2)CC1`, in assay [1], it took a dose of 4.82 mg/kg to reach the 50% effect level (ED50). For the same compound, the IC50 (commonly the concentration at which inhibition is half-maximal) was 598 nM in assay [3] and over 50000 nM in assay [4].

On to `CCC(=O)OC1(c2ccccc2)CCN(CCCC(=O)c2ccc(F)cc2)C[C@@H]1C` (some centres not stated), for which the ED50 in assay [1] came out at 0.22 mg/kg; in assay [2], 0.23 mg/kg. Besides, the figures for the IC50 in assay [3], in assay [4] and in assay [5] were 3.33 nM, 33.5 nM and 2600 nM, respectively.

Regarding `C[C@@H]1CN(CCCC(=O)c2ccc(F)cc2)CCC1(O)c1ccccc1` (some centres not stated), the values for the ED50 in assay [1] and in assay [6] were 0.93 mg/kg and over 5 mg/kg, respectively. Also, the IC50 was over 10000 nM in assay [3] and 2650 nM in assay [5].

Take `O=C(CCCN1CCC(c2ccccc2)CC1)c1ccc(F)cc1`: the ED50 in assay [1] was determined as 1.31 mg/kg; in assay [6], 5 mg/kg. In addition, the figures for the IC50 in assay [3], in assay [4] and in assay [5] were over 10000 nM, 69.9 nM and 7500 nM, respectively.

In assay [1], `O=C(CCCN1CCC(O)CC1)c1ccc(F)cc1` displayed an ED50 of 5.84 mg/kg. For the same compound, the ED50 result in assay [7] was “inactive”. The IC50 in assay [3] is 5500 nM; in assay [4], over 5000 nM.

Compound `CN1CC[C@]23c4c5ccc(O)c4O[C@H]2[C@@H](O)C=C[C@H]3[C@H]1C5.Cl` [MORPHINE HYDROCHLORIDE] gave an ED50 in assay [6] of 1.2 mg/kg.

In the case of `CCC(=O)OC1(c2ccccc2)CCN(CCCC(=O)c2ccc(F)cc2)CC1`, the ED50 stood at 0.2 mg/kg in assay [1] and 0.32 mg/kg in assay [2]. Besides, the values for the IC50 in assay [3], in assay [4] and in assay [5] were 2.96 nM, 28.8 nM and 2400 nM, respectively.

In the case of `O=C(CCCN1CCC(O)(c2ccccc2)CC1)c1ccc(F)cc1`, the values for the ED50 in assay [1] and in assay [6] were 0.35 mg/kg and over 5 mg/kg, respectively. In addition, the IC50 in assay [3] was 3215 nM; in assay [4], 47.1 nM; in assay [5], 2800 nM.

Regarding `CN1CCc2cccc3c2[C@H]1Cc1ccc(O)c(O)c1-3` [APOMORPHINE], the IC50 in assay [3] turned out to be 302 nM.

As for `C[C@H]1CN(CCCC(=O)c2ccc(F)cc2)CCC1(O)c1ccccc1` (some centres not stated), the values for the ED50 in assay [1] and in assay [6] were 1.54 mg/kg and over 5 mg/kg, respectively. Moreover, the IC50 in assay [3] was over 10000 nM; in assay [5], 1650 nM.
